Among the data in ChEMBL document CHEMBL3244188, “Antagonists of slow reacting substance of anaphylaxis. Synthesis of a series of chromone-2-carboxylic acids” (J Med Chem, 1977) are IC50 values, retold here.

This experiment concerns Ileum. The experiment is described as follows: Antagonism of slow reacting substance of anaphylaxis-induced contraction in guinea pig ileum treated 30 secs before SRS-A challenge. Conditions: Cavia porcellus. Type of experiment: functional, tissue-based.
Consider `CCCc1c(OCc2ccccc2)cccc1OCC(O)COc1ccc2c(=O)cc(C(=O)[O-])oc2c1CCC.[Na+]` (stereo not drawn), for which the IC50 – broadly, the midpoint of a concentration-inhibition curve – was 1 µg/mL.
As to `O=C([O-])c1cc(=O)c2ccc(OCCCOc3ccccc3)cc2o1.[Na+]`, 1.4 µg/mL corresponded to half-maximal inhibition (IC50).
The value for `O=C([O-])c1cc(=O)c2ccc(OCCCCCOc3ccccc3)cc2o1.[Na+]` was 0.4 µg/mL.
For `O=C([O-])c1cc(=O)c2ccc(OCCCCCOc3cccc(O)c3)cc2o1.[Na+]`, the IC50 is 1.5 µg/mL.
The value for `O=C([O-])c1cc(=O)c2ccc(OCCCCCCCCCOc3ccccc3)cc2o1.[Na+]` was 1.8 µg/mL; that for `O=C([O-])c1cc(=O)c2c(OCCCCCOc3ccccc3)cccc2o1.[Na+]` was 17.5 µg/mL; that for `C=CCc1ccccc1OCC(O)COc1ccc2c(=O)cc(C(=O)[O-])oc2c1.[Na+]` (stereo not drawn) was 1.8 µg/mL.
`O=C([O-])c1cc(=O)c2ccc(OCC(O)COc3ccccc3)cc2o1.[Na+]` (stereo not drawn) gave a half-inhibitory concentration (IC50) of 7 µg/mL.
The value for `C=CCc1c(OCCCCCOc2ccc(C(C)=O)cc2)ccc2c(=O)cc(C(=O)[O-])oc12.[Na+]` was 2.4 µg/mL.
The value for `CCCc1ccccc1OCCCOc1ccc2c(=O)cc(C(=O)[O-])oc2c1CCC.[Na+]` was 0.18 µg/mL; that for `C=CCc1c(OCC(O)COc2ccc3c(=O)cc(C(=O)[O-])oc3c2)ccc(C(C)=O)c1O.[Na+]` (stereo not drawn) was 0.1 µg/mL; that for `O=C([O-])c1cc(=O)c2ccc(OCCCCCCCOc3ccccc3)cc2o1.[Na+]` was 1.8 µg/mL.
The value for `COc1cccc(OCCCCCOc2ccc3c(=O)cc(C(=O)[O-])oc3c2)c1.[Na+]` was 1.5 µg/mL; that for `O=C([O-])c1cc(=O)c2cc(CCCc3ccccc3)ccc2o1.[Na+]` was 3 µg/mL.
Molecule `CCCc1c(OCC(O)COc2ccc3c(=O)cc(C(=O)[O-])oc3c2CCC)ccc(C(C)=O)c1O.[Na+]` (stereo not drawn) [FPL-55712 SODIUM SALT] registered an IC50 of 0.005 µg/mL.
`O=C([O-])c1cc(=O)c2cccc(OCCCOc3ccccc3)c2o1.[Na+]` gave an IC50 of 50 µg/mL.
The value for `CC(=O)c1ccc(OCCCCCOc2ccc3c(=O)cc(C(=O)[O-])oc3c2)cc1O.[Na+]` was 6.8 µg/mL; that for `CCCc1ccccc1OCCCOc1cc2oc(C(=O)[O-])cc(=O)c2cc1CCC.[Na+]` was 18 µg/mL.
`O=C([O-])c1cc(=O)c2cccc(OCCCCCOc3ccccc3)c2o1.[Na+]`: half-maximal inhibition (IC50) was put at 9 µg/mL.
The value for `CCCc1ccccc1OCC(O)COc1cc2oc(C(=O)[O-])cc(=O)c2cc1CCC.[Na+]` (stereo not drawn) was 1.6 µg/mL; that for `O=C([O-])c1cc(=O)c2c(OCCCCCCCCCOc3ccccc3)cccc2o1.[Na+]` was 6 µg/mL.
The value for `O=C([O-])c1cc(=O)c2c(OCCCOc3ccccc3)cccc2o1.[Na+]` was 35 µg/mL.
Regarding `O=C([O-])c1cc(=O)c2cc(OCCCOc3ccccc3)ccc2o1.[Na+]`, the IC50 was found to be 3.3 µg/mL.
The value for `C=CCc1c(OCCCCCOc2ccc3c(=O)cc(C(=O)[O-])oc3c2CC=C)ccc(C(C)=O)c1O.[Na+]` was 1.23 µg/mL; that for `CCCc1c(OCCCOc2ccc3c(=O)cc(C(=O)[O-])oc3c2CCC)ccc(C(C)=O)c1O.[Na+]` was 0.001 µg/mL; that for `C=CCc1c(OCC(O)COc2ccc3c(=O)cc(C(=O)[O-])oc3c2CC=C)ccc(C(C)=O)c1O.[Na+]` (stereo not drawn) was 0.05 µg/mL.
Consider `CC(=O)c1ccc(OCCCCCOc2ccc3c(=O)cc(C(=O)[O-])oc3c2)cc1.[Na+]`, for which the IC50 is 3.5 µg/mL.
The value for `CCCc1cc(C(C)=O)ccc1OCC(O)COc1ccc2c(=O)cc(C(=O)[O-])oc2c1CCC.[Na+]` (stereo not drawn) was 0.15 µg/mL.
The value for `C=CCc1c(OCC(O)COc2ccc(C(C)=O)c(O)c2)ccc2c(=O)cc(C(=O)[O-])oc12.[Na+]` (stereo not drawn) was 3.3 µg/mL; that for `CCCc1ccccc1OCC(O)COc1ccc2c(=O)cc(C(=O)[O-])oc2c1.[Na+]` (stereo not drawn) was 2 µg/mL; that for `O=C([O-])c1cc(=O)c2ccc(OCCCCCOc3cccc(OCc4ccccc4)c3)cc2o1.[Na+]` was 1 µg/mL.
The molecule `O=C([O-])c1cc(=O)c2c(OCCOc3ccccc3)cccc2o1.[Na+]` came in with an IC50 of 100 µg/mL.
The value for `O=C([O-])c1cc(=O)c2cc(CCCCCc3ccccc3)ccc2o1.[Na+]` was 4.5 µg/mL.
The value for `CCCc1c(OCC(O)COc2ccc3c(=O)cc(C(=O)[O-])oc3c2CCC)ccc(C(C)=O)c1OC.[Na+]` (stereo not drawn) was 45 µg/mL.
The value for `CCCc1ccccc1OCC(O)COc1ccc2c(=O)cc(C(=O)[O-])oc2c1CCC.[Na+]` (stereo not drawn) was 0.044 µg/mL.
In turn, `O=C([O-])c1cc(=O)c2ccc(OCCCCCc3ccccc3)cc2o1.[Na+]` came in with an IC50 of 0.6 µg/mL.
As to `O=C([O-])c1cc(=O)c2ccc(OCCCCCSc3ccccc3)cc2o1.[Na+]`, the midpoint of inhibition, the IC50, lay at 0.4 µg/mL.
The value for `CCCc1c(OCC(O)COc2ccc3c(=O)cc(C(=O)[O-])oc3c2)ccc(C(C)=O)c1O.[Na+]` (stereo not drawn) was 0.08 µg/mL; that for `O=C([O-])c1cc(=O)c2cc(OCCCCCOc3ccccc3)ccc2o1.[Na+]` was 3.3 µg/mL; that for `O=C([O-])c1cc(=O)c2ccc(OCCOc3ccccc3)cc2o1.[Na+]` was 15 µg/mL.
The value for `C=CCc1ccc(OCCCCCOc2ccc3c(=O)cc(C(=O)[O-])oc3c2)c(C(C)=O)c1O.[Na+]` was 0.9 µg/mL; that for `O=C([O-])c1cc(=O)c2ccc(SCCCCCOc3ccccc3)cc2o1.[Na+]` was 0.3 µg/mL.
The value for `CCCc1c(OCC(O)COc2cccc(O)c2C(C)=O)ccc2c(=O)cc(C(=O)[O-])oc12.[Na+]` (stereo not drawn) was 0.3 µg/mL; that for `C=CCc1c(OCCCCCOc2ccc(C(=O)CN)cc2)ccc2c(=O)cc(C(=O)[O-])oc12.[Na+]` was 3.9 µg/mL; that for `C=CCc1c(OCCCCCOc2cccc(O)c2C(C)=O)ccc2c(=O)cc(C(=O)[O-])oc12.[Na+]` was 0.05 µg/mL.
`CC(=O)c1ccc(OCC(O)COc2ccc3c(=O)cc(C(=O)[O-])oc3c2)cc1O.[Na+]` (stereo not drawn) had an IC50 of 28 µg/mL.
The value for `O=C([O-])c1cc(=O)c2c(OCCCCCCCOc3ccccc3)cccc2o1.[Na+]` was 0.8 µg/mL.
The value for `O=C([O-])c1cc(=O)c2cc(Cc3ccccc3)ccc2o1.[Na+]` was 6.6 µg/mL.
